Source: patent publication US20080090805A1, “CB-1 MODULATING COMPOUNDS AND THEIR USE” (ACADIA PHARMACEUTICALS INC., priority 2005, published 2008)
Like-named read-outs stand apart in the source and are kept apart here.

Biological target: CB1 (mutant) (Homo sapiens, UniProt P21554)
Test: R-SAT functional receptor assay, CB1 (mutant, truncated after amino acid 417)
Format: cell-based
Conditions: R-SAT CB1; for IC50: receptor form (mutant or wild-type) not stated; for Emax / % Inhibition: receptor form not stated, relative to SR141716 (100%); for Emax: read-out: % Inhibition
[1] = Appendix A, read-out: pIC50 (converted)

CB1 (mutant), sequence (P21554 1-417, change not shown): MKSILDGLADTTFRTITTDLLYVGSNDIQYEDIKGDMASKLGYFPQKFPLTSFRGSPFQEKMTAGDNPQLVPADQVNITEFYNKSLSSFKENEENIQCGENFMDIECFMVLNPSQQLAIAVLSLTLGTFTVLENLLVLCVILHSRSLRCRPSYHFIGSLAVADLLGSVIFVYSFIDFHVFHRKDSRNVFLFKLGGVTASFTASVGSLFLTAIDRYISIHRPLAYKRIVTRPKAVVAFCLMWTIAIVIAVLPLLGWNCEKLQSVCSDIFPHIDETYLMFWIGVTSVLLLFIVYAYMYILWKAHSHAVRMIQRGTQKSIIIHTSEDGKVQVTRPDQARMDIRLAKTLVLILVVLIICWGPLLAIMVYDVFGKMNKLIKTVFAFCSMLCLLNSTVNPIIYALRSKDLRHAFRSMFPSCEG

SMILES | IC50 [1] [nM] | Emax (Appendix A) [%] | % Inhibition (Appendix A) [%] | IC50 (pIC50, Appendix A) [nM]
O=C(NCCC(F)(F)F)c1ccc2c(c1)N=C(c1ccc(F)cc1)c1ccccc1S2 [drawing 827] | 12.6 | 98 |  | 
CCCCNC(=O)c1ccc2c(c1)N=C(c1cccc(Cl)c1)c1cc(F)ccc1S2 [drawing 829] | 12.6 | 105 |  | 
O=C(NCc1cccc(Cl)c1)c1ccc2c(c1)N=C(c1ccc(F)cc1)c1ccccc1S2(=O)=O [drawing 833] | 12.6 | 108 |  | 
COc1ccc(C2=Nc3cc(C(=O)NCC(C)C)ccc3Sc3ccccc32)cc1 [drawing 835] | 12.6 | 118 |  | 
O=C(NCc1cccc(Cl)c1)c1ccc2c(c1)N=C(c1ccc(Cl)cc1)c1cc(F)ccc1S2 [drawing 837] | 12.6 | 110 |  | 
O=C(NCCc1ccccc1)c1ccc2c(c1)N=C(c1ccc(F)cc1)c1ccccc1S2 [drawing 839] | 12.6 | 103 |  | 
O=C(Cc1ccccc1)NNC(=O)c1ccc2c(c1)N=C(c1ccc(F)cc1)c1ccccc1S2 [drawing 840] | 158 | 98 |  | 
CCCNC(=O)c1ccc2c(c1)N=C(c1ccc(F)cc1)c1ccccc1S2 [drawing 841] | 12.6 | 95 |  | 
O=C(NC1CCCCC1)c1ccc2c(c1)N=C(c1cccc(Cl)c1)c1ccccc1S2 [drawing 843] | 12.6 | 99 |  | 
O=C(NC1CCCCC1)c1ccc2c(c1)N=C(c1ccc(Cl)cc1)c1ccccc1S2 [drawing 844] | 158 |  | 97 | 
O=C(NN1CCCCC1)c1ccc2c(c1)N=C(c1ccc(F)cc1)c1ccccc1S2 [drawing 845] |  |  | 97 | 
Clc1ccc(C2=Nc3cc(-c4ncc[nH]4)ccc3Sc3ccccc32)cc1 [drawing 846] | 158 | 109 |  | 
C[C@@H]1CCC[C@H](C)N1NC(=O)c1ccc2c(c1)N=C(c1cccc(Cl)c1)c1ccccc1S2 [drawing 847] |  | 100 |  | 12.6
COCCNC(=O)c1ccc2c(c1)N=C(c1cccc(Cl)c1)c1ccccc1S2 [drawing 849] | 12.6 | 110 |  | 
CCOC(=O)c1ccc(C2=Nc3cc(C(=O)NCc4cccnc4)ccc3Sc3ccccc32)cc1 [drawing 850] | 158 | 73 |  | 
CCCNC(=O)c1ccc2c(c1)N=C(c1ccc(Cl)cc1F)c1ccccc1S2 [drawing 851] | 12.6 | 101 |  | 
COc1ccc(C2=Nc3cc(C(=O)NC4CCCC4)ccc3Sc3ccccc32)cc1 [drawing 852] | 158 | 103 |  | 

SMILES | IC50 [1] [nM] | Emax (Appendix A) [%] | % Inhibition (Appendix A) [%] | IC50 (pIC50, Appendix A) [nM]
Cc1ccsc1C1=Nc2cc(C(=O)NCc3ccco3)ccc2Sc2ccccc21 [drawing 855] | 12.6 | 100 |  | 
O=C(NCCc1cccnc1)c1ccc2c(c1)N=C(c1cccc(Cl)c1)c1ccccc1S2 [drawing 857] | 12.6 | 100 |  | 
O=C(NCc1ccco1)c1ccc2c(c1)N=C(c1ccccc1F)c1ccccc1S2 [drawing 859] |  | 100 |  | 12.6
O=C(NN1CCCCC1)c1ccc2c(c1)N=C(C1CCCCC1)c1ccccc1S2 [drawing 861] |  |  | 100 | 
O=C(NN1CCCCC1)c1ccc2c(c1)N=C(c1ccc(Cl)cc1)c1ccccc1S2 [drawing 863] |  |  | 103 | 
CCN(CCNC(=O)c1ccc2c(c1)N=C(C1CCCCC1)c1ccccc1S2)c1ccccc1 [drawing 865] | 15.8 | 105 |  | 
O=C(NN1CCCCCC1)c1ccc2c(c1)N=C(c1ccc(Cl)cc1F)c1ccccc1S2 [drawing 867] | 15.8 | 102 |  | 
Cc1cccc(C2=Nc3cc(C(=O)NC4CCC(F)(F)CC4)ccc3Sc3ccccc32)n1 [drawing 869] | 15.8 | 74 |  | 
O=C(NCCCC(F)(F)F)c1ccc2c(c1)N=C(c1ccccn1)c1ccccc1S2 [drawing 871] | 15.8 | 117 |  | 
Cc1cnc(-c2ccc3c(c2)N=C(c2ccc(Cl)cc2)c2ccccc2S3)[nH]1 [drawing 872] | 200 | 88 |  | 
CCCCNC(=O)c1ccc2c(c1)N=C(c1ccc(Cl)s1)c1cc(F)ccc1S2 [drawing 873] | 15.8 | 99 |  | 
CCOC(=O)c1ccc(C2=Nc3cc(C(=O)NCc4ccccn4)ccc3Sc3ccccc32)cc1 [drawing 874] | 200 | 100 |  | 
CCCCNC(=O)c1ccc2c(c1)N=C(c1sccc1C)c1ccccc1S2 [drawing 881] |  | 91 |  | 15.8
O=C(NN1CCCCCC1)c1ccc2c(c1)N=C(c1cccc(F)c1)c1ccccc1S2 [drawing 883] |  |  | 96 | 15.8
O=C(NN1CCCCC1)c1ccc2c(c1)N=C(c1ccc(Cl)cc1)c1ccccc1S2 [drawing 914] |  |  | 51 | 
O=C(NN1CCCCC1)c1ccc2c(c1)N=C(c1cccc(F)c1)c1ccccc1S2 [drawing 929] |  | 111 |  | 15.8
O=C(NCc1cccc(Cl)c1)c1ccc2c(c1)N=C(N1CCCCC1)c1ccccc1S2(=O)=O [drawing 939] |  | 91 |  | 20

Further lines, with some results ahead:

IC50 [1] [nM] | Emax (Appendix A) [%] | SMILES | % Inhibition (Appendix A) [%] | IC50 (pIC50, Appendix A) [nM]
15.8 | 106 | CCCCNS(=O)(=O)c1ccc2c(c1)N=C(c1ccc(Cl)cc1)c1ccccc1S2 [drawing 875] |  | 
200 | 82 | O=C(NN1CCCCCC1)c1ccc2c(c1)N=C(c1ccc(Cl)cc1Cl)c1ccccc1S2 [drawing 876] |  | 
15.8 | 97 | O=C(NCc1ccccc1)c1ccc2c(c1)N=C(C1CCCCC1)c1ccccc1S2 [drawing 877] |  | 
15.8 | 113 | CC(CNC(=O)c1ccc2c(c1)N=C(c1cccc(Cl)c1)c1cc(F)ccc1S2)c1ccccc1 (stereo not shown) [drawing 879] |  | 
15.8 | 106 | CCCC1=Nc2cc(C(=O)NCCN(CC)c3ccccc3)ccc2Sc2ccccc21 [drawing 885] |  | 
15.8 | 112 | CCCCNC(=O)c1ccc2c(c1)N=C(c1ccc(OC)cc1)c1ccccc1S2 [drawing 887] |  | 
15.8 | 104 | O=C(NCCc1ccc(Cl)cc1)c1ccc2c(c1)N=C(C1CCCCC1)c1ccccc1S2 [drawing 889] |  | 
200 | 62 | O=C(NCc1ccccc1Br)c1ccc2c(c1)N=C(N1CCCCC1)c1ccccc1S2 [drawing 890] |  | 
15.8 | 85 | O=C(NCc1ccccn1)c1ccc2c(c1)N=C(c1cccc(Br)c1)c1ccccc1S2 [drawing 891] |  | 
15.8 | 109 | CCCNC(=O)c1ccc2c(c1)N=C(c1cccc(F)c1)c1ccccc1S2 [drawing 893] |  | 
15.8 | 105 | O=C(NCc1cccnc1)c1ccc2c(c1)N=C(c1cccc(Br)c1)c1ccccc1S2 [drawing 895] |  | 
200 | 103 | Cc1ccc(N2CCN(C(=O)c3ccc4c(c3)N=C(C3CCCCC3)c3ccccc3S4)CC2)c(C)c1 [drawing 896] |  | 
15.8 | 115 | O=C(NN1CCCCC1)c1ccc2c(c1)N=C(c1ccccc1)c1ccccc1S2 [drawing 897] |  | 
15.8 | 107 | O=C(NCc1cccc(Cl)c1)c1ccc2c(c1)N=C(c1ccccc1)c1ccccc1S2 [drawing 899] |  | 
15.8 | 101 | O=C(NCc1ccc(Cl)cc1Cl)c1ccc2c(c1)N=C(c1ccc(Cl)cc1)c1ccccc1S2 [drawing 901] |  | 
15.8 | 104 | O=C(NCCCc1ccccc1)c1ccc2c(c1)N=C(N1CCCCC1)c1ccccc1S2 [drawing 903] |  | 
15.8 | 103 | O=C(NCCc1ccccn1)c1ccc2c(c1)N=C(c1cccc(Cl)c1)c1ccccc1S2 [drawing 905] |  | 

IC50 [1] [nM] | Emax (Appendix A) [%] | SMILES | % Inhibition (Appendix A) [%] | IC50 (pIC50, Appendix A) [nM]
15.8 | 100 | CCCCNC(=O)c1ccc2c(c1)N=C(c1ccccn1)c1ccccc1S2 [drawing 907] |  | 
15.8 | 110 | CC(CNC(=O)c1ccc2c(c1)N=C(c1ccccc1F)c1ccccc1S2)c1ccccc1 (stereo not shown) [drawing 909] |  | 
15.8 | 99 | O=C(NCCc1cccc(Cl)c1)c1ccc2c(c1)N=C(c1ccc(Cl)cc1)c1ccccc1S2 [drawing 911] |  | 
15.8 | 105 | CCN(CCNC(=O)c1ccc2c(c1)N=C(N1CCCCC1)c1ccccc1S2)c1ccccc1 [drawing 913] |  | 
15.8 | 112 | CCCNC(=O)c1ccc2c(c1)N=C(c1ccc(OC)cc1)c1ccccc1S2 [drawing 915] |  | 
15.8 | 120 | O=C(NCc1ccc(F)cc1)c1ccc2c(c1)N=C(C1CCCCC1)c1ccccc1S2(=O)=O [drawing 917] |  | 
15.8 | 98 | O=C(NCCc1cccc(Cl)c1)c1ccc2c(c1)N=C(c1ccc(F)cc1)c1ccccc1S2 [drawing 919] |  | 
15.8 | 118 | CC(C)NC(=O)c1ccc2c(c1)N=C(c1cccc(Cl)c1)c1ccccc1S2 [drawing 921] |  | 
15.8 | 102 | O=C(NCc1ccc(F)cc1)c1ccc2c(c1)N=C(c1ccccc1F)c1ccccc1S2 [drawing 925] |  | 
15.8 | 99 | CCCNC(=O)c1ccc2c(c1)N=C(c1sccc1C)c1ccccc1S2 [drawing 927] |  | 
251 | 86 | O=C(NNCc1ccccc1)c1ccc2c(c1)N=C(c1cccc(Br)c1)c1ccccc1S2 [drawing 928] |  | 
15.8 | 123 | O=C(NCc1cccnc1)c1ccc2c(c1)N=C(c1ccc(F)cc1)c1ccccc1S2 [drawing 931] |  | 
20 | 106 | CC(CNC(=O)c1ccc2c(c1)N=C(c1ccc(Cl)cc1)c1ccccc1S2)c1ccccc1 (stereo not shown) [drawing 933] |  | 
20 | 106 | O=C(NCCCc1ccccc1)c1ccc2c(c1)N=C(c1ccccc1F)c1ccccc1S2 [drawing 935] |  | 
20 | 106 | CCCCNC(=O)c1ccc2c(c1)N=C(C1CCCCC1)c1ccccc1S2 [drawing 937] |  | 
20 | 127 | O=C(NC1CCCCC1)c1ccc2c(c1)N=C(c1cccc(F)c1)c1ccccc1S2 [drawing 941] |  | 
